Measurements taken from patent US20120255051A1, “HERBICIDE TOLERANT PLANTS” (priority 2009, published 2012).
Values joined by “and” are separate entries in the source; they are usually repeats but may differ in a detail not shown here. Identical values can stand only once.

Test system: Brassica plants comprising mutant AHAS alleles
Test: Field trial, pre-planting treatment (0, 10, 20, 30 g a.i./ha), two locations in Canada: ERG, EST1, EST2, PPTOX, VIG1, VIG2, VIG3 scores
Type: in vivo, Brassica napus
Conditions: for vigor3 (VIG3) score, Av: Elite parent line plants
Excerpt: Tests were set up and conducted to asses the growth and performance of plants comprising AHAS full knock-out alleles, and to further analyze the correlation between the presence of full knockout and missense AHAS genes in Brassica plants and plant growth and herbicide tolerance of the Brassica plants in the field. To this end, the Brassica plants identified in Example 1 and 2 were backcrossed two times with an elite parent line, and subsequently selfed twice to obtain homozygous plants (BC2S2). Plants were grown as row plots in a split plot design with three replicates (main plots=herbicide treatments, subplots=genotypes) at two locations in Canada. Treatment pre-planting was carried out on the soil about two days before sowing with a dose of 0 (treatment A), 10 (treatment B), 20 (treatment C) or 30 (treatment D) g a.i./ha of thiencarbazone methyl. Herbicide tolerance was measured by scoring for different parameters. The parameter emergence (ERG) was scored at the cotyledon stage on a scale 1-9, where 1 means late emergence and 9 means early emergence. Establishment was scored 14 days after sowing (EST1) and 21 days after sowing (EST2). Scores were from 1 to 9, where 1 is the worst establishment (least plants that emerged), and 9 is the best establishment (most plants emerged). Phytotoxicity (PPTOX) was determined after establishment. Plants were evaluated on a scale of 1 to 9, where 1=completely yellowing, 5=50% of plant is yellow and 9=no yellowing. The vigor scores (see above) were determined at 1-2 leaf stage (VIG1), 7 days after VIG1 (VIG2) and 14 days after VIG1 (VIG3). The average values (Av) and standard deviations (SD) of the scores for the different parameters are represented in Table 7a-g.
Further, the contribution of the knock-out allele to herbicide tolerance conferred by the missense allele was calculated. First, the scores were corrected for a possible effect of the growth per se, independent of herbicide treatment. To this end, the scores for treatments B, C and D were divided by the scores for treatment A for the same genotype and for the same parameter (corrected herbicide tolerance scores). Next, the effect of the knock-out allele to these corrected herbicide tolerance scores obtained by the missense allele was calculated. Therefore, the corrected herbicide tolerance scores for the missense—knock-out allele combination was divided by the corrected herbicide tolerance scores for the missense allele—wild-type combination. In case the knock-out allele has no effect on herbicide tolerance conferred by the missense allele, this ratio should be 1. In case the knock-out allele positively contributes to the herbicide tolerance conferred by the missense allele, this ratio should be higher than 1. The results for the contribution of the knock-out allele to herbicide tolerance conferred by the missense allele as calculated above are shown in table 8.

[1] = AHAS1 WT/AHAS3 HETO104, 10 g a.i./ha pre-planting (B), Location A
[2] = AHAS1 WT/AHAS3 HETO104, 10 g a.i./ha pre-planting (B), Location B
[3] = AHAS1 WT/AHAS3 HETO104, 20 g a.i./ha pre-planting (C), Location A
[4] = AHAS1 WT/AHAS3 HETO104, 20 g a.i./ha pre-planting (C), Location B
[5] = AHAS1 WT/AHAS3 HETO104, 30 g a.i./ha pre-planting (D), Location A
[6] = AHAS1 WT/AHAS3 HETO104, 30 g a.i./ha pre-planting (D), Location B
[7] = AHAS1 WT/AHAS3 HETO111, 10 g a.i./ha pre-planting (B), Location A
[8] = AHAS1 WT/AHAS3 HETO111, 10 g a.i./ha pre-planting (B), Location B
[9] = AHAS1 WT/AHAS3 HETO111, 20 g a.i./ha pre-planting (C), Location A
[10] = AHAS1 WT/AHAS3 HETO111, 20 g a.i./ha pre-planting (C), Location B
[11] = AHAS1 WT/AHAS3 HETO111, 30 g a.i./ha pre-planting (D), Location A
[12] = AHAS1 WT/AHAS3 HETO111, 30 g a.i./ha pre-planting (D), Location B
[13] = AHAS1 WT/AHAS3 WT, 10 g a.i./ha pre-planting (B), Location A
[14] = AHAS1 WT/AHAS3 WT, 10 g a.i./ha pre-planting (B), Location B
[15] = AHAS1 WT/AHAS3 WT, 20 g a.i./ha pre-planting (C), Location A
[16] = AHAS1 WT/AHAS3 WT, 20 g a.i./ha pre-planting (C), Location B
[17] = AHAS1 WT/AHAS3 WT, 30 g a.i./ha pre-planting (D), Location A
[18] = AHAS1 WT/AHAS3 WT, 30 g a.i./ha pre-planting (D), Location B
[19] = Elite parent line, 10 g a.i./ha pre-planting (B), Location A
[20] = Elite parent line, 10 g a.i./ha pre-planting (B), Location B
[21] = Elite parent line, 20 g a.i./ha pre-planting (C), Location A
[22] = Elite parent line, 20 g a.i./ha pre-planting (C), Location B
[23] = Elite parent line, 30 g a.i./ha pre-planting (D), Location A
[24] = Elite parent line, 30 g a.i./ha pre-planting (D), Location B
[25] = Elite parent line, treatment B 10 g a.i./ha pre-planting, Location A
[26] = Elite parent line, treatment B 10 g a.i./ha pre-planting, Location B
[27] = Elite parent line, treatment C 20 g a.i./ha pre-planting, Location A
[28] = Elite parent line, treatment C 20 g a.i./ha pre-planting, Location B
[29] = Elite parent line, treatment D 30 g a.i./ha pre-planting, Location A
[30] = Elite parent line, treatment D 30 g a.i./ha pre-planting, Location B
[31] = Location A, treatment B 10 g a.i./ha pre-planting, ratio >1 = positive contribution

COC(=O)c1csc(C)c1S(=O)(=O)NC(=O)n1nc(OC)n(C)c1=O [thiencarbazone-methyl, methyl 4-[(4,5-dihydro-3-methoxy-4-methyl-5-oxo-1H-1,2,4-triazol-1-yl)carbonylsulfamoyl]-5-methylthiophene-3-carboxylate]
phytotoxicity (PPTOX) score, Av [1]: 1.33 | vigor1 (VIG1) score, Av [1]: 1.33 | vigor2 (VIG2) score, Av [1]: 1.00 | establishment (EST2) score, Av [2]: 3.33 | phytotoxicity (PPTOX) score, Av [2]: 1.33 | vigor2 (VIG2) score, Av [2]: 1.33 | establishment (EST2) score, Av [3]: 1.00 | phytotoxicity (PPTOX) score, Av [3]: 1.00 | vigor1 (VIG1) score, Av [3]: 1.00 | vigor2 (VIG2) score, Av [3]: 1.00 | establishment (EST2) score, Av [4]: 2.33 | phytotoxicity (PPTOX) score, Av [4]: 1.00 | vigor1 (VIG1) score, Av [4]: 1.33 | vigor2 (VIG2) score, Av [4]: 1.00 | establishment (EST2) score, Av [5]: 1.00 | phytotoxicity (PPTOX) score, Av [5]: 1.00 | vigor1 (VIG1) score, Av [5]: 1.00 | vigor2 (VIG2) score, Av [5]: 1.00 | establishment (EST2) score, Av [6]: 1.00 | phytotoxicity (PPTOX) score, Av [6]: 1.00 | vigor1 (VIG1) score, Av [6]: 1.00 | vigor2 (VIG2) score, Av [6]: 1.00 | establishment (EST2) score, Av [7]: 5.33 and 5.67 | vigor1 (VIG1) score, Av [7]: 6.00 | vigor2 (VIG2) score, Av [7]: 7.00 | phytotoxicity (PPTOX) score, Av [8]: 6.00 and 6.33 | vigor1 (VIG1) score, Av [8]: 6.33 and 6.00 | vigor2 (VIG2) score, Av [8]: 7.00 | establishment (EST2) score, Av [9]: 4.67 | phytotoxicity (PPTOX) score, Av [9]: 5.00 | vigor1 (VIG1) score, Av [9]: 5.00 | vigor2 (VIG2) score, Av [9]: 6.33 | establishment (EST2) score, Av [10]: 4.67 | vigor1 (VIG1) score, Av [10]: 5.00 | vigor2 (VIG2) score, Av [10]: 6.00 and 5.67 | establishment (EST2) score, Av [11]: 5.00 | phytotoxicity (PPTOX) score, Av [11]: 5.00 | vigor1 (VIG1) score, Av [11]: 5.00 | vigor2 (VIG2) score, Av [11]: 5.67 and 5.33 | phytotoxicity (PPTOX) score, Av [12]: 4.00 | vigor1 (VIG1) score, Av [12]: 3.67 | vigor2 (VIG2) score, Av [12]: 4.33 and 5.00 | establishment (EST2) score, Av [13]: 1.00 and 2.00 | phytotoxicity (PPTOX) score, Av [13]: 1.00 | vigor1 (VIG1) score, Av [13]: 1.00 and 1.33 | vigor2 (VIG2) score, Av [13]: 1.00 | establishment (EST2) score, Av [14]: 4.33 and 5.00 | phytotoxicity (PPTOX) score, Av [14]: 1.33 and 1.67 and 2.33 | vigor1 (VIG1) score, Av [14]: 3.00 | vigor2 (VIG2) score, Av [14]: 1.67 and 2.00 | establishment (EST2) score, Av [15]: 1.00 | phytotoxicity (PPTOX) score, Av [15]: 1.00 | vigor1 (VIG1) score, Av [15]: 1.00 | vigor2 (VIG2) score, Av [15]: 1.00 | establishment (EST2) score, Av [16]: 3.67 and 4.00 and 3.00 | phytotoxicity (PPTOX) score, Av [16]: 1.00 and 1.33 | vigor1 (VIG1) score, Av [16]: 1.33 | vigor2 (VIG2) score, Av [16]: 1.33 and 1.67 | establishment (EST2) score, Av [17]: 1.00 | phytotoxicity (PPTOX) score, Av [17]: 1.00 | vigor1 (VIG1) score, Av [17]: 1.00 | vigor2 (VIG2) score, Av [17]: 1.00 | establishment (EST2) score, Av [18]: 1.33 and 2.00 | phytotoxicity (PPTOX) score, Av [18]: 1.00 and 2.00 | vigor1 (VIG1) score, Av [18]: 1.33 | vigor2 (VIG2) score, Av [18]: 1.33 and 1.00 | vigor3 (VIG3) score, Av (10 g a.i./ha (treatment B) pre-planting, Location A): 1.00 | vigor3 (VIG3) score, Av (10 g a.i./ha (treatment B) pre-planting, Location B): 3.67 | vigor3 (VIG3) score, Av (20 g a.i./ha (treatment C) pre-planting, Location A): 1.00 | vigor3 (VIG3) score, Av (20 g a.i./ha (treatment C) pre-planting, Location B): 1.00 | vigor3 (VIG3) score, Av (30 g a.i./ha (treatment D) pre-planting, Location A): 1.00 | vigor3 (VIG3) score, Av (30 g a.i./ha (treatment D) pre-planting, Location B): 1.00 | establishment (EST2) score, Av [19]: 2.00 | phytotoxicity (PPTOX) score, Av [19]: 1.00 | vigor1 (VIG1) score, Av [19]: 1.00 | vigor2 (VIG2) score, Av [19]: 1.00 | establishment (EST2) score, Av [20]: 6.00 | phytotoxicity (PPTOX) score, Av [20]: 3.67 | vigor1 (VIG1) score, Av [20]: 4.00 | vigor2 (VIG2) score, Av [20]: 4.00 | establishment (EST2) score, Av [21]: 2.33 | phytotoxicity (PPTOX) score, Av [21]: 1.00 | vigor1 (VIG1) score, Av [21]: 1.33 | vigor2 (VIG2) score, Av [21]: 1.00 | establishment (EST2) score, Av [22]: 4.67 | phytotoxicity (PPTOX) score, Av [22]: 1.67 | vigor1 (VIG1) score, Av [22]: 2.00 | vigor2 (VIG2) score, Av [22]: 2.00 | establishment (EST2) score, Av [23]: 2.00 | phytotoxicity (PPTOX) score, Av [23]: 1.00 | vigor1 (VIG1) score, Av [23]: 1.00 | vigor2 (VIG2) score, Av [23]: 1.00 | establishment (EST2) score, Av [24]: 4.00 | phytotoxicity (PPTOX) score, Av [24]: 1.00 | vigor1 (VIG1) score, Av [24]: 1.33 | vigor2 (VIG2) score, Av [24]: 1.00 | emergence (ERG) score Av [25]: 2.00 | establishment (EST1) score Av, 14 days after sowing [25]: 2.00 | emergence (ERG) score Av [26]: 5.00 | establishment (EST1) score Av, 14 days after sowing [26]: 6.67 | emergence (ERG) score Av [27]: 2.33 | establishment (EST1) score Av, 14 days after sowing [27]: 2.33 | emergence (ERG) score Av [28]: 4.33 | establishment (EST1) score Av, 14 days after sowing [28]: 4.67 | emergence (ERG) score Av [29]: 2.00 | establishment (EST1) score Av, 14 days after sowing [29]: 2.00 | emergence (ERG) score Av [30]: 3.00 | establishment (EST1) score Av, 14 days after sowing [30]: 4.00 | relative contribution of HETO104 (AHAS3 KO) to herbicide tolerance conferred by HETO108 (AHAS1 missense): ERG [31]: 0.86 | relative contribution of HETO104 (AHAS3 KO) to herbicide tolerance conferred by HETO108 (AHAS1 missense): EST1 [31]: 0.91 | relative contribution of HETO104 (AHAS3 KO) to herbicide tolerance conferred by HETO108 (AHAS1 missense): EST2 [31]: 0.95 | relative contribution of HETO104 (AHAS3 KO) to herbicide tolerance conferred by HETO108 (AHAS1 missense): PPTOX [31]: 0.83 | relative contribution of HETO104 (AHAS3 KO) to herbicide tolerance conferred by HETO108 (AHAS1 missense): VIG1 [31]: 0.90 | relative contribution of HETO104 (AHAS3 KO) to herbicide tolerance conferred by HETO108 (AHAS1 missense): VIG2 [31]: 0.88 | relative contribution of HETO104 (AHAS3 KO) to herbicide tolerance conferred by HETO108 (AHAS1 missense): VIG3 [31]: 0.96 | relative contribution of HETO112 (AHAS1 KO) to herbicide tolerance conferred by HETO111 (AHAS3 missense): ERG [31]: 0.85 | relative contribution of HETO112 (AHAS1 KO) to herbicide tolerance conferred by HETO111 (AHAS3 missense): EST1 [31]: 0.92 | relative contribution of HETO112 (AHAS1 KO) to herbicide tolerance conferred by HETO111 (AHAS3 missense): EST2 [31]: 1.04 | relative contribution of HETO112 (AHAS1 KO) to herbicide tolerance conferred by HETO111 (AHAS3 missense): PPTOX [31]: 1.06 | relative contribution of HETO112 (AHAS1 KO) to herbicide tolerance conferred by HETO111 (AHAS3 missense): VIG1 [31]: 1.10
